Measured values from patent publication US9102697B2, “Trioxacarcins and uses thereof” (President and Fellows of Harvard College, priority 2010, dated 2015).

System: self-complementary duplex 12-mer d(AATTACGTAATT) (SEQ ID NO: 1)
Test: DNA alkylation detected by non-denaturing DNA-gel electrophoresis with in-gel fluorescence
Type: biochemical
Conditions: for alkylation / modification of the DNA duplex: 12-mer duplex with single central G residue, gel in-gel fluorescence and LC-MS; for fluorescent complex with the oligonucleotide detected: two-hour reaction at 23 °C
Source text: Two independent techniques were used to evaluate the reactivity of the synthesized trioxacarcins towards d(AATTACGTAATT) (SEQ ID NO: 1). The first technique involved detecting alkylated DNA oligonucleotides by in-gel fluorescence with non-denaturing DNA-gel electrophoresis. The second technique involved detecting alkylated DNA oligonucleotides using a liquid chromatography-mass spectrometry method.
We began the DNA-alkylation studies by evaluating the activity of DC-45-A2 towards the self-complementary 12-mer d(AATTACGTAATT) (SEQ ID NO: 1) in pH 7 phosphate buffer at different concentrations (FIG. 10). The concentration of the oligonucleotide was held constant at 100 μM while DC-45-A2 was used at five different concentrations ranging from 1 μM to 1000 μM (lanes 4-8) in five separate reactions. At the highest concentrations of DC-45-A2 (500 μM and 1000 μM), a second and distinct fluorescent complex was observed by in-gel fluorescence. […] Chem. 390, 1139 (2008). After incubation for 3 h at 23° C., aliquots of the reactions mixtures were loaded onto a 20% crosslinked polyacrylamide gel. After electrolution, the gels were visualized using an alpha imager, first by irradiating the gel at 302 nm to image fluorescent species in the gel (in-gel fluorescence) and then by treating the gel with ethidium bromide and again irradiating at 302 nm to image fluorescent species in the treated gel. The fluorescence quantum efficiency of an ethidium bromide molecule increases 20- to 25-fold upon intercalation into duplex DNA: J.-B. Le Pecq, C. Paoletti, Anal. Biochem. 17, 100 (1966).
Next, we compared the reactivity of DC-45-A2 to both iso-DC-45-A2 and dideoxy-DC-45-A2 towards the same oligonucleotide in three separate alkylation experiments (FIG. 11).
Having noted the apparent differential reactivity between DC-45-A2 and dideoxy-DC-45-A2, we performed an experiment to visualize the formation of the fluorescent complex at different reaction times (FIG. 12). The reaction of the oligonucleotide with DC-45-A2 reached an approximate maximum of fluorescence intensity between 5 and 10 h, while the reaction of the oligonucleotide with dideoxy-DC-45-A2 reached a maximum fluorescence intensity between 1 and 4 h.
Seven vials (designated vials 1 and vials 3-8) were loaded with alkylation buffer (86.7 μL, see above for preparation). A solution of duplex oligonucleotide d(AATTACGTAATT) (SEQ ID NO: 1) (1.07 mM [concentration of the DNA duplex] in alkylation buffer [see above for preparation], 9.34 μL, 10 nmol, 1 equiv) was added to vials 3-8. Dimethylsulfoxide was added in the following amounts to vials 3-7 (vial 3, 4.00 μL; vial 4, 3.80 μL; vial 5, 3.00 μL; vials 6-7, 2.00 μL). Solutions of DC-45-A2 in dimethylsulfoxide was added to vial 1 and vials 4-8 at the following concentrations and amounts (vial 1, 25 mM solution of DC-45-A2, 4.00 μL; vial 4, 5 mM solution of DC-45-A2, 0.20 μL; vial 5, 5 mM solution of DC-45-A2, 1.00 μL; vial 6, 5 mM solution of D-45-A2, 2.00 μL; vial 7, 25 mM solution of DC-45-A2, 2.00 μL; vial 8, 25 mM solution of DC-45-A2, 4.00 μL). The samples were vortexed, then rotated end-over-end at 23° C. After 2 h, four vials (designated vials 9-12) were prepared containing the following (vial 9, an aliquot of the solution from vial 3 [18.0 μL], DNase I enzyme solution [2.00 μL, Invitrogen 18047-019]; vial 10, an aliquot of the solution from vial 3 [20.0 μL]; vial 11, an aliquot of the solution from vial 5 [18.0 μL], DNase I enzyme [2.00 μL, Invitrogen 18047-019]; vial 12, an aliquot of the solution from vial 5 [20.0 μL]. Vials 9 and 11 were rotated end-over-end at 23° C. for 1 h. Vials 10 and 12 were heated at 95° C. for 15 min. To a final vial (designated vial 2) was added a 10-bp DNA ladder (4 μL, Invitrogen 10821-015) and alkylation buffer (16.0 μL). Vials 2 and 9-12 were diluted with loading buffer (5.00 μL, see above for preparation). A 20-μL aliquot was removed from vials 1 and 3-8. […]

In the case of Dideoxy-DC-45-A2, the “alkylation / modification of the DNA duplex” value (“alkylation / modification” for short) (23 °C) is reported as “found to modify”, the “rate of alkylation of the DNA duplex” value (23 °C) is reported as “within minutes” and the “efficiency of alkylation of the DNA duplex” value (23 °C, compared with DC-45-A2) is reported as “apparently greater efficiency”. For the same molecule, the “signal intensity of the fluorescent complex” value (compound and DNA 100 μM, 2 h at 23 °C, compared with DC-45-A2) was “more intense signal” and the “fluorescent complex with the oligonucleotide detected” value (compound and DNA 100 μM) was “clearly detected”.

With DC-45-A2 the “alkylation / modification” value (23 °C) was “found to modify”, the “alkylation / modification” value (23 °C, listed as 1) was “readily alkylated” and the “rate of alkylation of the DNA duplex” value (23 °C) was “half life of hours”. For the same molecule, the “fluorescent complex with the oligonucleotide detected” value (compound and DNA 100 μM) was “clearly detected” and the “stability of the fluorescent DNA complex to heating” value (reaction mixture heated at 95 °C for 15 min) was “destroyed”.

`COc1c2c(c(O)c3c4c(c(C)cc13)[C@H]1O[C@]3(C(OC)OC)O[C@H]1[C@](O)(O4)[C@@]31CO1)C(=O)[C@@H](O)C[C@@H]2O` [iso-DC-45-A2, 11,12,13,15-tetraepi-DC-45-A2] was tested, and the “alkylation / modification” value (23 °C) was “unreactive” and the “alkylation / modification” value (23 °C, listed as Iso-DC-45-A2) was “not observed to modify”.
